Experimental findings from ChEMBL document CHEMBL5223081 (J Med Chem, 2021) are described below.

In one data set the target is T1, Adenosine receptor A3 (Homo sapiens, UniProt P0DMS8).
T1 sequence (P0DMS8 whole entry): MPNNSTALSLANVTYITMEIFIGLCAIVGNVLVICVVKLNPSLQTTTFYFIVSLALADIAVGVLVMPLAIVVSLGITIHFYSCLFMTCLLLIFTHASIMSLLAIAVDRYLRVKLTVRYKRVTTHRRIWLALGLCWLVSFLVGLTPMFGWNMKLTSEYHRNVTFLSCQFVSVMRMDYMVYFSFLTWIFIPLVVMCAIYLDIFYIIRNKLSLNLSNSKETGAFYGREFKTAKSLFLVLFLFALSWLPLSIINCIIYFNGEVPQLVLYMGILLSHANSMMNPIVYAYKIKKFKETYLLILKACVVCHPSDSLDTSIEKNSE
Briefly: Binding affinity to human A3 adenosine receptor assessed as inhibition constant.

The nature of data set [1]: Inhibition of human PDE5 derived from platelets by scintillation counter analysis.
Data set [2] can be described thus: Aqueous solubility of compound. It is filed as physicochemical.
Data set [3] in a line: Inhibition of PDE2 derived from bovine heart by scintillation counter analysis. Also on record: species or system Bos taurus.
The species entered for data set [4] is Homo sapiens. Kind of data set: Selectivity index, ratio of Ki for human A1 receptor to Ki for human A3 receptor assessed as fold change.
The species named for data set [5] is Homo sapiens. Briefly: Selectivity index, ratio of Ki for human A2A receptor to Ki for human A3 receptor assessed as fold change.
Data set [6] is filed under the species Homo sapiens. Briefly: Selectivity index, ratio of Ki for human A2 receptor to Ki for A1 receptor assessed as fold change.
Data set [7] is filed under the species Homo sapiens. Kind of data set: Selectivity index, ratio of antagonist activity at A1 receptor to antagonist activity at A2 receptor.
In data set [8] the target is GABA-A receptor; anion channel. Briefly: Inhibition of GABAA receptors (unknown origin). In kind it is protein-complex assay, Homo sapiens.
The target of data set [9] is Nuclear receptor subfamily 2 group E member 1 (Homo sapiens, UniProt Q9Y466). Kind of data set: Inhibition of tlx (unknown origin).
Sequence of Nuclear receptor subfamily 2 group E member 1 (Q9Y466 whole entry): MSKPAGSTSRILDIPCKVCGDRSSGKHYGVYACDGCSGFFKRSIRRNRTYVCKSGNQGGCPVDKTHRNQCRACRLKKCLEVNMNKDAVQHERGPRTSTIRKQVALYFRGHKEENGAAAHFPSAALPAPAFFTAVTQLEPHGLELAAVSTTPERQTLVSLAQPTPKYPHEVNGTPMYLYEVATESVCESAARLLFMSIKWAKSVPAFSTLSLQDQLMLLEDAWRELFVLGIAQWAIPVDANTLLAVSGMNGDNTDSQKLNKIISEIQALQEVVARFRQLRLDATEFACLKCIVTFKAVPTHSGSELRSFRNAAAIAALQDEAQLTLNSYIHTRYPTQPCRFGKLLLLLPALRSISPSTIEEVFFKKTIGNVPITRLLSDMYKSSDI
Data set [10] is described as follows: Inhibition of Glycogen phosphorylase (unknown origin). Also noted: species or system Homo sapiens.
The next data set concerns the target T2, Guanine deaminase (Homo sapiens, UniProt Q9Y2T3).
T2 sequence (Q9Y2T3 whole entry): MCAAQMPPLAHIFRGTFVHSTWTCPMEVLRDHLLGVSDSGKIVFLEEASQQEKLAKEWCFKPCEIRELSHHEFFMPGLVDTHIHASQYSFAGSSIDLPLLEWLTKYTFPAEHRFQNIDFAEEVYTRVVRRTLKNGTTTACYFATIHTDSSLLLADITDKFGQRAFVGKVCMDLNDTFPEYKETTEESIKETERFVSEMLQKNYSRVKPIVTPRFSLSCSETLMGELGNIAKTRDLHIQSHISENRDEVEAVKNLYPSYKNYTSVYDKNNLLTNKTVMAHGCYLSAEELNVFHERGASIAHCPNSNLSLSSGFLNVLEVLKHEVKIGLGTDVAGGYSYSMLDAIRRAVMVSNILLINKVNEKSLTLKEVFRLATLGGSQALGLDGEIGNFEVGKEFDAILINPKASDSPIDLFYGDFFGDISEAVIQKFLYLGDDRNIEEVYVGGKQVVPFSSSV
Briefly: Inhibition of guanine deaminase (unknown origin).

The nature of data set [11]: Inhibition of ryanodine receptor (unknown origin). Also on record: species or system Homo sapiens.
Data set [12] in a line: Inhibition of PI3-kinase (unknown origin). Also noted: species or system Homo sapiens.
Data set [13] in a line: Inhibition of phosphodiesterase (unknown origin). Also on record: species or system Homo sapiens.
Data set [14] can be described thus: Inhibition of human glycogen phosphorylase in presence of 0.2 mM of AMP.
The nature of data set [15]: Inhibition of bile export protein (unknown origin). Also noted: species or system Homo sapiens.
In data set [16] the target is T3, Palmitoleoyl-protein carboxylesterase NOTUM (Homo sapiens, UniProt Q6P988).
T3 sequence (Q6P988 whole entry): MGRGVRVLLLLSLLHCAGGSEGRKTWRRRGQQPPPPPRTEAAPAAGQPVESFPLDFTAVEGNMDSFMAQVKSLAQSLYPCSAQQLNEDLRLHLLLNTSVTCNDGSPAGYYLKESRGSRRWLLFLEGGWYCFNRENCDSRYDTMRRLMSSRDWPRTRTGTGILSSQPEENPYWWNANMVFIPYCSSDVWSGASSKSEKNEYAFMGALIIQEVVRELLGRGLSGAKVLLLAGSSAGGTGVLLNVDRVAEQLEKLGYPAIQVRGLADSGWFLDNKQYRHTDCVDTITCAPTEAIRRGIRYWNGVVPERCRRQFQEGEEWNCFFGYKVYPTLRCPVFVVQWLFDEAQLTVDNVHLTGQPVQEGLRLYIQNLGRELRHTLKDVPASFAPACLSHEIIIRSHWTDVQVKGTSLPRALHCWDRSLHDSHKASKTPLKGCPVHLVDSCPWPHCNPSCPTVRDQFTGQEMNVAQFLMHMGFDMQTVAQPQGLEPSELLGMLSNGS
Kind of data set: Inhibition of notum (unknown origin).

Data set [17] is described as follows: Inhibition of human glycogen phosphorylase.

Broadly, the Ki is a dissociation constant, usually derived from enzyme kinetics or from competition with a known ligand. Usually IC50 stands for the concentration needed to halve the response being measured. In general, solubility refers to the dissolved amount per volume that the medium holds. In general, pKi refers to the negative decadic logarithm of the Ki, by convention in mol/L. A high value points to a small Ki. The pEC50 is the negative decadic logarithm of the EC50, by convention in mol/L. By pIC50 is commonly meant the IC50 on a negative log10 scale, so that one unit is a factor of ten. A lower pIC50 goes with a large IC50.

In the case of `CC[C@@H]1CN2C(=O)N(C)c3nc(-c4cc(Cl)cc(Cl)c4Cl)[nH]c3C2=N1`, the inhibitory constant (Ki) on Adenosine receptor A3 is 0.000433 µM.
Regarding `CCCc1nn(C)c2c(=O)[nH]c(-c3cc(S(=O)(=O)N4CCN(C)CC4)ccc3OCC)nc12`, the half-inhibitory concentration (IC50) in data set [1] came out at 0.01 µM.
In turn, `CCCn1c(=O)c2c(nc(/C=C/c3ccc(OC)c(OC)c3)n2C)n(CCC)c1=O` registered a solubility in data set [2] below 10 µg/mL.
For `COc1ccc(Cc2nc(O)c3c(C)nc([C@@H](CCCc4ccccc4)[C@@H](C)O)n3n2)cc1OC`, the IC50 in data set [3] was determined as 0.0047 µM.
With `Cn1c(=O)c2[nH]c(-c3ccc(S(=O)(=O)O)cc3)nc2n(C)c1=O`, the solubility in data set [2] was above 20 µM.
Regarding `CCCCn1c(=O)c2c(ncn2[C@@H]2O[C@H](C(=O)NC)[C@@H](O)[C@H]2O)n(CCCC)c1=O`, the values for the Ratio Ki in the data set listed under Homo sapiens [4] and in the data set filed under Homo sapiens [5] were 160 and above 400, respectively.
For the compound `CCCn1c(=O)c2nc(-c3ccc(OCC(N)=O)cc3O)[nH]c2n(CCC)c1=O`, the Ratio Ki in the data set listed under Homo sapiens [6] stood at 190.
The same measure, in the same setting: with `CCCn1c(=O)c2nc(C3CC4CC3C3OC43)[nH]c2n(CCC)c1=O` (stereo unspecified) the figure was 400.
Consider `CCCn1cnc2c1c(=O)n(C)c(=O)n2C`, for which the Ratio in the data set filed under Homo sapiens [7] stood at 10.
In the case of `Cn1c(=O)c2c(ncn2C)n(C)c1=O` [CAFFEINE], the negative-log Ki (pKi) in data set [8] is recorded as below 4; in data set [10], 4. For the same compound, the IC50 in data set [9] is 7.94 µM; in data set [14] it was 360 µM; in data set [16] it was 100 µM; in [17] it was 92 µM. For the same compound, the Ki at Guanine deaminase is 10 µM. The compound further came in with a pEC50 in data set [11] below 4. Also, the pIC50 entry was “<= 4.1” in data set [12], below 4 in data set [13] and 4 in [15].
